Reference: ChEMBL document CHEMBL1909046, “DrugMatrix in vitro pharmacology data”

Assays:
[1] = molecular target: 5-hydroxytryptamine receptor 2B (Homo sapiens, UniProt P41595); assay type: cell membranes, CHO-K1, Membrane; also: in other assays of this panel Not Active means under 50% inhibition at 10 µM
[2] = DRUGMATRIX: Serotonin (5-Hydroxytryptamine) 5-HT3 radioligand binding (ligand: [3H] GR-65630); assay type: cell membranes, Membrane; conditions: hek293; Not Active = under 50% inhibition at 10 µM
[3] = molecular target: T1, C-C chemokine receptor type 4 (Homo sapiens, UniProt P51679); assay type: cell membranes, Chem-1, Membrane; conditions: chem-1; also: in other assays of this panel Not Active means under 50% inhibition at 10 µM
T1 sequence (P51679 whole entry): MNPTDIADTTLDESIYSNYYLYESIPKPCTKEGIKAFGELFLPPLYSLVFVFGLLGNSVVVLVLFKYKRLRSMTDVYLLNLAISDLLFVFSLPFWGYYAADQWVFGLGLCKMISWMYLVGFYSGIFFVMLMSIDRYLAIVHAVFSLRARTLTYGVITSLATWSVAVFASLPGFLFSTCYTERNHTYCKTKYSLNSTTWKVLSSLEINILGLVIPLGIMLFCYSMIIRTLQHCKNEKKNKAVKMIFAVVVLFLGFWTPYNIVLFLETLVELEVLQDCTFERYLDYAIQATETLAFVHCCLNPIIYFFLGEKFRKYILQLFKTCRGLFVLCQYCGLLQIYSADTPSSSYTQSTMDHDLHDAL

[4] = molecular target: Sodium-dependent dopamine transporter (Homo sapiens, UniProt Q01959); assay: DRUGMATRIX: Dopamine Transporter radioligand binding (ligand: [125I] RTI-55); assay type: cell membranes, CHO-K1, Membrane; conditions: Not Active = under 50% inhibition at 10 µM
[5] = DRUGMATRIX: Glutamate, NMDA, Agonism radioligand binding (ligand: [3H] CGP-39653); assay type: cell membranes, Rattus norvegicus, Wistar, Cerebral cortex, Membrane; conditions: Not Active = under 50% inhibition at 10 µM
[6] = molecular target: Insulin receptor (Rattus norvegicus, UniProt P15127); assay type: cell membranes, Wistar, Liver, Membrane; also: in other assays of this panel Not Active means under 50% inhibition at 10 µM
[7] = molecular target: T2, Cathepsin G (Homo sapiens, UniProt P08311); assay: biochemical; assay type: tissue-based, Neutrophil; conditions: neutrophil;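 also: inhibition of Cathepsin G enzyme activity, tested on an AMC-conjugated peptide substrate; in other assays of this panel Not Active means under 50% inhibition at 10 µM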
T2 sequence (P08311 whole entry): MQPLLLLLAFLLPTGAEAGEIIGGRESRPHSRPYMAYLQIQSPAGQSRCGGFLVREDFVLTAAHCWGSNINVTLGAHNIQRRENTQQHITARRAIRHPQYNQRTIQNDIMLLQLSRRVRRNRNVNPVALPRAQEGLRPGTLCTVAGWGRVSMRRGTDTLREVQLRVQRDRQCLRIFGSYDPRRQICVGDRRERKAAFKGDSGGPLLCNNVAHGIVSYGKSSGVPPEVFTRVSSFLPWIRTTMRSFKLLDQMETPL

[8] = molecular target: Voltage-gated inwardly rectifying potassium channel KCNH2 (Homo sapiens, UniProt Q12809); conditions: hek293; also: in other assays of this panel Not Active means under 50% inhibition at 10 µM
Sequence of Voltage-gated inwardly rectifying potassium channel KCNH2 (Q12809 whole entry): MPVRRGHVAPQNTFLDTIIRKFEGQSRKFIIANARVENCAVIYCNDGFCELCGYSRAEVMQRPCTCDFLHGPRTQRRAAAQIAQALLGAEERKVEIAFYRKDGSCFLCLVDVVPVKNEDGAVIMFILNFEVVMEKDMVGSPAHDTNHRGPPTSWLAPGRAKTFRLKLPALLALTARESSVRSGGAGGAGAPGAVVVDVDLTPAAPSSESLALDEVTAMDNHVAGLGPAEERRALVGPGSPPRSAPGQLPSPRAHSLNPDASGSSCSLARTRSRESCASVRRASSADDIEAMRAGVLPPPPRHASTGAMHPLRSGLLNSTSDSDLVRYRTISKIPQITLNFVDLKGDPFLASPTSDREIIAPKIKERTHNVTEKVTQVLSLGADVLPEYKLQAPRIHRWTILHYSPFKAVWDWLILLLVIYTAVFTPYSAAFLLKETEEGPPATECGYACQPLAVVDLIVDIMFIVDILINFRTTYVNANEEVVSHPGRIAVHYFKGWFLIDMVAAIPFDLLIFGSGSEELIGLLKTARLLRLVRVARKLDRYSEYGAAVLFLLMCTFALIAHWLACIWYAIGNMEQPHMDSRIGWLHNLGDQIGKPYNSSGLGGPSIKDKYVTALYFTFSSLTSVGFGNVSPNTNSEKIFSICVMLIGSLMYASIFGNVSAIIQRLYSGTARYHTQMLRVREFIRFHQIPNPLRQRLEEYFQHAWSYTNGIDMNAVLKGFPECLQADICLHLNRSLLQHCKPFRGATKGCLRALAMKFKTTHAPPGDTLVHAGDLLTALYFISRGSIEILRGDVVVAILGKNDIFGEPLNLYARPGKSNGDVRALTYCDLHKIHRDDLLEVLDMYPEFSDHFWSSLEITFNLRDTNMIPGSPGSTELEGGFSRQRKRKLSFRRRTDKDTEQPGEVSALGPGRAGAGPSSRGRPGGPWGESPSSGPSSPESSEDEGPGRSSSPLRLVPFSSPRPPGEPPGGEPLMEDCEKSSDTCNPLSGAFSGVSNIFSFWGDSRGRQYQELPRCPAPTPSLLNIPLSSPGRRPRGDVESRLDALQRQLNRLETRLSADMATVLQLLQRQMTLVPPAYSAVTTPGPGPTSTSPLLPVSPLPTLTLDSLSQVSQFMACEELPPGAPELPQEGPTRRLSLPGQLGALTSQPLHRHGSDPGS

Sequence of 5-hydroxytryptamine receptor 2B (P41595 whole entry): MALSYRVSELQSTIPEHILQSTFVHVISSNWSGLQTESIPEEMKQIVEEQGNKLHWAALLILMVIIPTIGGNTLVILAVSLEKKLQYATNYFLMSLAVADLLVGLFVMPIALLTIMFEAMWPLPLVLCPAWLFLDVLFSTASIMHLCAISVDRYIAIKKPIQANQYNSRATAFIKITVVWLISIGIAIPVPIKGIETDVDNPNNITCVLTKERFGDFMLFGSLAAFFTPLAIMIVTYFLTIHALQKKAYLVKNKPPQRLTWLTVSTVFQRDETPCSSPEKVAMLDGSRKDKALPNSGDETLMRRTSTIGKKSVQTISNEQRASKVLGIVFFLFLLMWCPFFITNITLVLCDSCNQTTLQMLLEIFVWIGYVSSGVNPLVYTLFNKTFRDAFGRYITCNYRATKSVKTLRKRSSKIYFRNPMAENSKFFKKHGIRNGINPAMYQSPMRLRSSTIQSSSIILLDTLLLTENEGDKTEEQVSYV
Sequence of Insulin receptor (P15127 27-759 limits assumed): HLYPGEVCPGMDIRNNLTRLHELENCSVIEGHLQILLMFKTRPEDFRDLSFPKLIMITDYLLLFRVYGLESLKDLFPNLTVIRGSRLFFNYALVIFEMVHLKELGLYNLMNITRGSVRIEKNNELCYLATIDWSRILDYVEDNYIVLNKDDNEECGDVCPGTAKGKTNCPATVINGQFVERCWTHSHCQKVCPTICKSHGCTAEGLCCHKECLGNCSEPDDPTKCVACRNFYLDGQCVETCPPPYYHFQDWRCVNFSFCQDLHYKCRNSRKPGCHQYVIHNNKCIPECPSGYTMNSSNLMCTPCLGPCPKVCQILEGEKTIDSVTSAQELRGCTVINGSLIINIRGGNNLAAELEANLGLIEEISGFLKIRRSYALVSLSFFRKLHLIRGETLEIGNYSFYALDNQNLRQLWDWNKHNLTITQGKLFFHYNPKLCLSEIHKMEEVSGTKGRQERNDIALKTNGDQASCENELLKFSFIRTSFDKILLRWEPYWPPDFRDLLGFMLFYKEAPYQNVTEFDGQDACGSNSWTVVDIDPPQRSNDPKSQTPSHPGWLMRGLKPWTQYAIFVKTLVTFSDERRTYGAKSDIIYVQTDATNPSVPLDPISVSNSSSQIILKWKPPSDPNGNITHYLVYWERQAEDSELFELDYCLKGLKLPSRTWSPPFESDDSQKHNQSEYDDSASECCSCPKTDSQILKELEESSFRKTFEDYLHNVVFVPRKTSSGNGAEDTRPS
Sequence of Insulin receptor (P15127 764-1383 limits assumed): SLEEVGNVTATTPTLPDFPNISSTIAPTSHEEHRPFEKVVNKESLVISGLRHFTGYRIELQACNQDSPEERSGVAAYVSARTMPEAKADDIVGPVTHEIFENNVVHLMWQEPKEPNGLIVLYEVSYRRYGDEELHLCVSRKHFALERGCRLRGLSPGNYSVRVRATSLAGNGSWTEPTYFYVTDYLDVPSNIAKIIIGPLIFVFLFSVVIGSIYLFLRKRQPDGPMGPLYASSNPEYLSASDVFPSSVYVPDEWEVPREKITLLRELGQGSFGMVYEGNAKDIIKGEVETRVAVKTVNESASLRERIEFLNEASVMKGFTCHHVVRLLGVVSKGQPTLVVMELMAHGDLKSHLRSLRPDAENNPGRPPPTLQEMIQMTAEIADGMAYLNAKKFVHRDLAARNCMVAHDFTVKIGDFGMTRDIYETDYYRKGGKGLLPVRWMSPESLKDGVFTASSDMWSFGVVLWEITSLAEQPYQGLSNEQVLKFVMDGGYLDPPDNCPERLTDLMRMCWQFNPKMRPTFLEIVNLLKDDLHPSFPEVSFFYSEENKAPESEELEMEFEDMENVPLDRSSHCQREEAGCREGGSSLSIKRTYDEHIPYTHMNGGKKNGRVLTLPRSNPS
Sequence of Sodium-dependent dopamine transporter (Q01959 whole entry): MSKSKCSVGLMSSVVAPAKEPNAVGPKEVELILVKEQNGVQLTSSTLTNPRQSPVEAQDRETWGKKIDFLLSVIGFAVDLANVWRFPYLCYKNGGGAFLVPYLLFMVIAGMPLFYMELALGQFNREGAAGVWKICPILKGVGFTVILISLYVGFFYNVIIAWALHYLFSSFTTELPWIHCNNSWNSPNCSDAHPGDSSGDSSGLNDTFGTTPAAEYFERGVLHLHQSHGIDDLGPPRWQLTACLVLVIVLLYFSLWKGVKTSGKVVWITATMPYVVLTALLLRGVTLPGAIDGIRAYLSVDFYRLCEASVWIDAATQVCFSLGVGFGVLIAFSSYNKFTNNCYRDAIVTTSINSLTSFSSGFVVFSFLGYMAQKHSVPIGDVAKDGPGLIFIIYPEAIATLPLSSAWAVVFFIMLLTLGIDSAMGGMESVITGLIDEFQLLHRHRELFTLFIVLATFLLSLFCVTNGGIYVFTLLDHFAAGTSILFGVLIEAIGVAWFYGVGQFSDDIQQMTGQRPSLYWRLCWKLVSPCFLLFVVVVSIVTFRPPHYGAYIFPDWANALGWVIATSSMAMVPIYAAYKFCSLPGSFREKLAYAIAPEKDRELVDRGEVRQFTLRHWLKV

Row | SMILES | IC50 ([1]; cho-k1) | IC50 [2] | Ki [2] | IC50 [3] | IC50 ([4]; cho-k1) | IC50 [5] | Ki [5] | IC50 [6] | IC50 [7] | IC50 [8] | Ki [8] | IC50 ([4]; read-out: IC50) [µM] | Ki ([4]; read-out: Ki) [µM] | IC50 ([1]; read-out: IC50) [µM] | Ki ([1]; read-out: Ki) [µM]
1 | O=C(O)CNCP(=O)(O)O [GLYPHOSATE] | Not Active | Not Active | Not Active | Not Active | Not Active | Not Active | Not Active | Not Active | Not Active | Not Active | Not Active |  |  |  | 
2 | c1ccc2c(c1)Nc1ccccc1S2 [PHENOTHIAZINE] | Not Active | Not Active | Not Active | Not Active |  | Not Active | Not Active | Not Active | Not Active | Not Active | Not Active | 18.6 | 14.8 |  | 
3 | OC[C@H]1OC2C3[C@@H](CO)OC(O[C@H]4[C@H](O)[C@@H](O)[C@@H](O[C@H]5[C@H](O)[C@@H](O)[C@@H](O[C@H]6[C@H](O)[C@@H](O)[C@@H](O[C@H]7[C@H](O)[C@@H](O)[C@@H](O[C@H]8[C@H](O)[C@@H](O)[C@@H](O[C@H]9[C@H](O)[C@@H](O)C(OC1[C@H](O)[C@H]2O)O[C@@H]9CO)O[C@@H]8CO)O[C@@H]7CO)O[C@@H]6CO)O[C@@H]5CO)O[C@@H]4CO)[C@H](O)[C@H]3O | Not Active | Not Active | Not Active | Not Active | Not Active | Not Active | Not Active | Not Active | Not Active | Not Active | Not Active |  |  |  | 
4 | CC(C)Cc1ccc([C@H](C)C(=O)O)cc1 [DEXIBUPROFEN] | Not Active | Not Active | Not Active | Not Active | Not Active | Not Active | Not Active | Not Active | Not Active | Not Active | Not Active |  |  |  | 
5 | CC(=O)[C@]1(O)Cc2c(O)c3c(c(O)c2[C@@H](O[C@H]2C[C@H](N)[C@H](O)[C@H](C)O2)C1)C(=O)c1ccccc1C3=O [IDARUBICIN] | Not Active | Not Active | Not Active | Not Active | Not Active | Not Active | Not Active | Not Active | Not Active | Not Active | Not Active |  |  |  | 
6 | NC(=O)NC(=O)Cc1ccccc1 [PHENACEMIDE] | Not Active | Not Active | Not Active | Not Active | Not Active | Not Active | Not Active | Not Active | Not Active | Not Active | Not Active |  |  |  | 
7 | Nc1ccc(C(=O)O)c(O)c1 [AMINOSALICYLIC ACID] | Not Active | Not Active | Not Active | Not Active | Not Active | Not Active | Not Active | Not Active | Not Active | Not Active | Not Active |  |  |  | 
8 | Nc1nc(N)c2nc(CNc3ccc(C(=O)N[C@@H](CCC(=O)O)C(=O)O)cc3)cnc2n1 [AMINOPTERIN] | Not Active | Not Active | Not Active | Not Active | Not Active | Not Active | Not Active | Not Active | Not Active | Not Active | Not Active |  |  |  | 
9 | c1ccc(Cn2ccnc2)cc1 | Not Active | Not Active | Not Active | Not Active | Not Active | Not Active | Not Active | Not Active | Not Active | Not Active | Not Active |  |  |  | 
10 | CC(C)(C#N)c1cc(Cn2cncn2)cc(C(C)(C)C#N)c1 [ANASTROZOLE] | Not Active | Not Active | Not Active | Not Active | Not Active | Not Active | Not Active | Not Active | Not Active | Not Active | Not Active |  |  |  | 
11 | COc1cc(/C=C/C(=O)O)ccc1O [FERULATE] | Not Active | Not Active | Not Active | Not Active | Not Active | Not Active | Not Active | Not Active | Not Active | Not Active | Not Active |  |  |  | 
12 | COc1cc([C@@H]2c3cc4c(cc3[C@H](O)[C@H]3COC(=O)[C@H]23)OCO4)cc(OC)c1OC [PODOFILOX] | Not Active | Not Active | Not Active | Not Active | Not Active | Not Active | Not Active | Not Active | Not Active | Not Active | Not Active |  |  |  | 
13 | C[N+](C)(C)CCOC(N)=O.[Cl-] [CARBACHOL] | Not Active | Not Active | Not Active | Not Active | Not Active | Not Active | Not Active | Not Active | Not Active | Not Active | Not Active |  |  |  | 
14 | CC1(COc2ccc(CC3SC(=O)NC3=O)cc2)CCCCC1 (centres undefined) [CIGLITAZONE] | Not Active | Not Active | Not Active | Not Active | Not Active | Not Active | Not Active | Not Active | Not Active | Not Active | Not Active |  |  |  | 
15 | Oc1ncnc2[nH]ncc12 [ALLOPURINOL] | Not Active | Not Active | Not Active | Not Active | Not Active | Not Active | Not Active | Not Active | Not Active | Not Active | Not Active |  |  |  | 
16 | Cc1cc(C(C)(C)C)c(O)c(C)c1CC1=NCCN1 [OXYMETAZOLINE] |  | Not Active | Not Active | Not Active | Not Active | Not Active | Not Active | Not Active | Not Active | Not Active | Not Active |  |  | 3.06 | 1.94
17 | CC(C)Cn1cnc2c(N)nc3ccccc3c21 [IMIQUIMOD] | Not Active | Not Active | Not Active | Not Active | Not Active | Not Active | Not Active | Not Active | Not Active | Not Active | Not Active |  |  |  | 
